Assays:
[1] = test system: G2.4 Minerva nVLP (norovirus-like particles, VP1 capsid protein); assay: Peptide affinity column capture and elution of nVLP from tobacco cell lysate; settings: nVLP1 immobilized on a bead
Source text: Coupling to Support: All 6 candidate peptides were synthesized by solid-phase peptide synthesis using standard FMOC chemistry and subsequently cleaved off the resin. The candidate peptides were attached to an iodoacetyl functionalized affinity matrix at a specifically determined level. The benefits of coupling our peptides to the affinity matrix as opposed to direct synthesis onto the bead are that it allows for greater control of the levels of peptide that are immobilized. The suitability of a ligand for affinity chromatography depends on its ability to bind the target molecule specifically and reversibly with an adequate affinity. […]
To test the recovery yield of the column, cell lysate containing ˜500 μg of VP1 (as measured by SDS-PAGE) was loaded on the column and ˜470 μg of VP1 was recovered for a 94% yield. The dynamic binding capacity of the chromatography media was determined and is defined as the amount of target protein that the media binds under actual flow conditions before significant breakthrough of unbound protein occurs. […]
Briefly, a large volume of VP1 containing lysate was prepared and its absorbance at 280 nm measured. This solution was continually loaded onto the column and the flow through measured for absorbance. The point at which breakthrough occurred, defined as 10% absorbance of the lysate, was used to calculate the binding capacity. […]

G1.1 nVLP = assay: Peptide affinity column binding and elution of G1.1 nVLP produced in insect cells; design: species or system norovirus; settings: eluted under same conditions as G2.4 nVLP
Source text: Noroviruses bind to histo-blood group antigens (HBGAs), which are carbohydrates that contain structurally related saccharide moieties, wherein type 1 and type 2 carbohydrate core structures constitute antigenically distinct variants. Several, but not all, noroviruses specifically bind to HBGAs, which are believed to function as receptors for docking and entry into the cell during infection. As previously mentioned, peptide nVLP1 was selected to specifically bind to G2.4 Minerva nVLPs. […] We therefore have identified at ligand that has cross reactivity to G1 and G2 capsid proteins in VLPs, with homology between genogroups I and II around 50%.

## LLYNKTFPHGRWSPSYPGSC (Peptide Ligand) [nVLP1, 20 mer peptide ligand for norovirus-like particles, optimal ligand]
[1]
  capture of nVLP from cell lysate: able to capture nVLP from cell lysate
G1.1 nVLP
  binding to G1.1 nVLP (cross reactivity G1/G2): shown to bind G1.1 nVLP

Source: patent US20130224730A1, “PEPTIDE LIGANDS” (ARIZONA BOARD OF REGENTS ACTING FOR AND ON BEHALF OF …, priority 2009, published 2013)
